The structures appear in SMILES notation. Bridge positions count the residues as written; N and C are the ends. Square brackets hold non-standard residues; d marks the D form. Peptide text beside a SMILES is read from it. * marks the point of attachment. ξ: configuration not given here. Bip = N[C@@H](Cc1ccc(-c2ccccc2)cc1)C(=O)O; Phe(3-Me) = Cc1cccc(C[C@H](N)C(=O)O)c1; hArg = N=C(N)NCCCC[C@H](N)C(=O)O; 3Thi = N[C@@H](Cc1ccsc1)C(=O)O; Cha = N[C@@H](CC1CCCCC1)C(=O)O; Cit = NC(=O)NCCC[C@H](N)C(=O)O; Thr(3ξ) = CC(O)[C@H](N)C(=O)O; 12Ado = NCCCCCCCCCCCC(=O)O; Carboxymethyl = O=C(O)C*; Orn = NCCC[C@H](N)C(=O)O; Aun = NCCCCCCCCCCC(=O)O; Dab = NCC[C@H](N)C(=O)O; Dap = NC[C@H](N)C(=O)O; Piv = CC(C)(C)C(=O)*

T1 sequence (Q15116 25-288): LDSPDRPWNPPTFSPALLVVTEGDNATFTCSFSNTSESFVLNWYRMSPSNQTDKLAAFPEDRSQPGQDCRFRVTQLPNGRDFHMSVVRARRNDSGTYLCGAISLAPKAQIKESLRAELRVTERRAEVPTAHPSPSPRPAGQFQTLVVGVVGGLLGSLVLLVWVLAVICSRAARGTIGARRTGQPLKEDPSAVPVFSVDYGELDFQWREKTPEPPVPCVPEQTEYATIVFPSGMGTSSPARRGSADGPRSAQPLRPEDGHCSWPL

This experiment concerns the target T1, PD-1/PD-L1 interaction (PE-labeled human PD-L1-Ig binding to Jurkat cell line over-expressing human PD-1) (Homo sapiens, UniProt Q15116).
T1 construct: expressed in transfected cells; host or cells: Jurkat
Put plainly: Jurkat-PD-1 Cell Binding High-Content Screening Assay (CBA). Particulars: Jurkat cell line over-expressing human PD-1; PE-labeled PD-L1-Ig 20 nM final; read-out: Jurkat hPD1-PDL1 IC50. The format is cell-based. Summed up:
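Binding of fluorescent PD-L1-Ig (phycoerythrin on Ig tag, 20 nM final, 1 h) measured by high-content imaging of fixed, Hoechst-counterstained Jurkat-hPD-1 cells. Compound added 2 h at 37° C beforehand, in DMEM with 10% fetal calf serum.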
Consider `Cc1cccc(C[C@@H]2NC(=O)[C@H](CC(=O)O)NC(=O)[C@H](Cc3ccc(OCC(=O)O)cc3)NC(=O)[C@H](CCCNC(=N)N)NC(=O)CSC[C@@H](C(=O)N[C@@H](CCCCN)C(=O)N[C@@H](CO)C(=O)NCCCCCCCCCCCC(=O)O)NC(=O)[C@H](CN)NC(=O)[C@H](C(C)C)NC(=O)[C@H](CC3CCCCC3)NC(=O)[C@H](CCN)NC(=O)[C@@H](CC(C)C)NC(=O)[C@H](CCCN)NC(=O)[C@H](C(C)C)NC(=O)[C@H](Cc3ccc(-c4ccccc4)cc3)NC(=O)[C@H](C(C)C)NC2=O)c1` [Compound 3535] ({CH2CO}-RY(Carboxymethyl)D[Phe(3-Me)]V[Bip]V[Orn][dL][Dab][Cha]V[Dap]CKS[12Ado]-OH; thioether N-14), for which the IC50 stood at 13.4 nM.
On to `Cc1cccc(C[C@@H]2NC(=O)[C@H](CC(=O)O)NC(=O)[C@H](Cc3ccc(OCC(=O)O)cc3)NC(=O)[C@H](CCCCNC(=N)N)NC(=O)CSC[C@@H](C(=O)N[C@@H](CCN)C(=O)N[C@@H](CO)C(=O)NCCCCCCCCCCCC(=O)O)NC(=O)[C@H](C(C)O)NC(=O)[C@H](C(C)O)NC(=O)[C@H](CC3CCCCC3)NC(=O)[C@H](CCN)NC(=O)[C@@H](CC(C)C)NC(=O)[C@H](CCCN)NC(=O)[C@H](CCCNC(=N)N)NC(=O)[C@H](Cc3ccc(-c4ccccc4)cc3)NC(=O)[C@H](C(C)C)NC2=O)c1` (stereo partly drawn) [Compound 3537] ({CH2CO}-[hArg]Y(Carboxymethyl)D[Phe(3-Me)]V[Bip]R[Orn][dL][Dab][Cha][Thr(3ξ)][Thr(3ξ)]C[Dab]S[12Ado]-OH; thioether N-14), for which the IC50 was 29.9 nM.
Next, `CC(=O)NCCCC[C@@H]1NC(=O)CSC[C@@H](C(=O)N[C@@H](CCN)C(=O)NCCCCCCCCCCC(=O)O)NC(=O)[C@H](C(C)O)NC(=O)[C@H](C(C)C)NC(=O)[C@H](CC2CCCCC2)NC(=O)[C@H](CCN)NC(=O)[C@@H](CC(C)C)NC(=O)[C@H](CCCN)NC(=O)[C@H](CCCNC(N)=O)NC(=O)[C@H](Cc2ccc(-c3ccccc3)cc2)NC(=O)[C@H](C(C)C)NC(=O)[C@H](Cc2cccc(C)c2)NC(=O)[C@H](CC(=O)O)NC(=O)[C@H](Cc2ccc(OCC(=O)O)cc2)NC1=O` (stereo partly drawn) [Compound 3538] ({CH2CO}-K(Ac)Y(Carboxymethyl)D[Phe(3-Me)]V[Bip][Cit][Orn][dL][Dab][Cha]V[Thr(3ξ)]C[Dab][Aun]-OH; thioether N-14): 26.3 nM; `Cc1cccc(C[C@@H]2NC(=O)[C@H](CC(=O)O)NC(=O)[C@H](Cc3ccc(OCC(=O)O)cc3)NC(=O)[C@H](CCCCNC(=O)C(C)(C)C)NC(=O)CSC[C@@H](C(=O)N[C@@H](CCN)C(=O)NCCCCCCCCCCC(=O)O)NC(=O)[C@H](C(C)O)NC(=O)[C@H](C(C)C)NC(=O)[C@H](CC3CCCCC3)NC(=O)[C@H](CCN)NC(=O)[C@@H](CC(C)C)NC(=O)[C@H](CCCN)NC(=O)[C@H](CCCNC(N)=O)NC(=O)[C@H](Cc3ccc(-c4ccccc4)cc3)NC(=O)[C@H](C(C)C)NC2=O)c1` (stereo partly drawn) [Compound 3539] ({CH2CO}-K(Piv)Y(Carboxymethyl)D[Phe(3-Me)]V[Bip][Cit][Orn][dL][Dab][Cha]V[Thr(3ξ)]C[Dab][Aun]-OH; thioether N-14): 39.9 nM.
To `CC(=O)NCCCC[C@@H]1NC(=O)[C@H](Cc2ccc(-c3ccccc3)cc2)NC(=O)[C@H](Cc2ccc(O)cc2)NC(=O)[C@H](Cc2cccc(C)c2)NC(=O)[C@H](CC(=O)O)NC(=O)[C@H](Cc2ccc(OCC(=O)O)cc2)NC(=O)[C@H](CCCNC(=N)N)NC(=O)CSC[C@@H](C(=O)N[C@H](CC(N)=O)C(=O)NCCCCCCCCCCC(=O)O)NC(=O)[C@H](C(C)O)NC(=O)[C@H](C(C)C)NC(=O)[C@H](CC2CCCCC2)NC(=O)[C@H](CCN)NC(=O)[C@@H](CC(C)C)NC(=O)[C@H](CCCNC(N)=O)NC1=O` (stereo partly drawn) [Compound 3541] ({CH2CO}-RY(Carboxymethyl)D[Phe(3-Me)]Y[Bip]K(Ac)[Cit][dL][Dab][Cha]V[Thr(3ξ)]C[dN][Aun]-OH; thioether N-14) belongs 10 nM.
As for `Cc1cccc(C[C@@H]2NC(=O)[C@H](CC(=O)O)NC(=O)[C@H](Cc3ccc(OCC(=O)O)cc3)NC(=O)[C@H](CCCNC(=N)N)NC(=O)CSC[C@@H](C(=O)N[C@H](CC(N)=O)C(=O)NCCCCCCCCCCC(=O)O)NC(=O)[C@H](C(C)O)NC(=O)[C@H](C(C)C)NC(=O)[C@H](CC3CCCCC3)NC(=O)[C@H](CCN)NC(=O)[C@@H](CC(C)C)NC(=O)[C@H](CCCNC(=N)N)NC(=O)[C@H](CCCCNC(=O)C(C)(C)C)NC(=O)[C@H](Cc3ccc(-c4ccccc4)cc3)NC(=O)[C@H](Cc3ccc(O)cc3)NC2=O)c1` (stereo partly drawn) [Compound 3542] ({CH2CO}-RY(Carboxymethyl)D[Phe(3-Me)]Y[Bip]K(Piv)R[dL][Dab][Cha]V[Thr(3ξ)]C[dN][Aun]-OH; thioether N-14), the IC50 was found to be 38.2 nM.
`CC(=O)NCCCC[C@@H]1NC(=O)[C@H](Cc2ccc(-c3ccccc3)cc2)NC(=O)[C@H](Cc2ccc(O)cc2)NC(=O)[C@H](Cc2cccc(C)c2)NC(=O)[C@H](CC(=O)O)NC(=O)[C@H](Cc2ccc(OCC(=O)O)cc2)NC(=O)[C@H](CCCNC(=N)N)NC(=O)CSC[C@@H](C(=O)N[C@H](CC(N)=O)C(=O)NCCCCCCCCCCC(=O)O)NC(=O)[C@H](C(C)O)NC(=O)[C@H](C(C)C)NC(=O)[C@H](CC2CCCCC2)NC(=O)[C@H](CCN)NC(=O)[C@@H](CC(C)C)NC(=O)[C@H](CCC(N)=O)NC1=O` (stereo partly drawn) [Compound 3543] ({CH2CO}-RY(Carboxymethyl)D[Phe(3-Me)]Y[Bip]K(Ac)Q[dL][Dab][Cha]V[Thr(3ξ)]C[dN][Aun]-OH; thioether N-14): the IC50 was 13.3 nM.
For `Cc1cccc(C[C@@H]2NC(=O)[C@H](CC(=O)O)NC(=O)[C@H](Cc3ccc(OCC(=O)O)cc3)NC(=O)[C@H](CCCNC(=N)N)NC(=O)CSC[C@@H](C(=O)N[C@@H](CCN)C(=O)NCCCCCCCCCCC(=O)O)NC(=O)[C@H](Cc3ccsc3)NC(=O)[C@H](C(C)C)NC(=O)[C@H](CC3CCCCC3)NC(=O)[C@H](CCN)NC(=O)[C@@H](CC(C)C)NC(=O)[C@H](CCCN)NC(=O)[C@H](Cc3ccc(OCC(=O)O)cc3)NC(=O)[C@H](Cc3ccc(-c4ccccc4)cc3)NC(=O)[C@H](Cc3ccc(OCC(=O)O)cc3)NC2=O)c1` [Compound 3545] ({CH2CO}-RY(Carboxymethyl)D[Phe(3-Me)]Y(Carboxymethyl)[Bip]Y(Carboxymethyl)[Orn][dL][Dab][Cha]V[3Thi]C[Dab][Aun]-OH; thioether N-14), the IC50 turned out to be 155 nM.
Next, `Cc1cccc(C[C@@H]2NC(=O)[C@H](CC(=O)O)NC(=O)[C@H](Cc3ccc(OCC(=O)O)cc3)NC(=O)[C@H](CCCCNC(=N)N)NC(=O)CSC[C@@H](C(=O)N[C@@H](CCCCN)C(=O)N[C@@H](CO)C(=O)NCCCCCCCCCCC(=O)O)NC(=O)[C@H](C(C)O)NC(=O)[C@H](C(C)O)NC(=O)[C@H](CC3CCCCC3)NC(=O)[C@H](CCN)NC(=O)[C@@H](CC(C)C)NC(=O)[C@H](CCCN)NC(=O)[C@H](CCCNC(=N)N)NC(=O)[C@H](Cc3ccc(-c4ccccc4)cc3)NC(=O)[C@H](C(C)C)NC2=O)c1` (stereo partly drawn) [Compound 3547] ({CH2CO}-[hArg]Y(Carboxymethyl)D[Phe(3-Me)]V[Bip]R[Orn][dL][Dab][Cha][Thr(3ξ)][Thr(3ξ)]CKS[Aun]-OH; thioether N-14): 74 nM.
